Test results: patent publication US9695155B2, “Herbicidal substituted pyrimidinyloxy benzene compounds” (E. I. DU PONT DE NEMOURS AND COMPANY, priority 2013, dated 2017)

Columns and labels:
smartweed = assay: Test E postemergence; type: in vivo, ladysthumb smartweed
Source text: (§1) Seeds of plant species selected from corn (Zea mays), soybean (Glycine max), velvetleaf (Abutilon theophrasti), lambsquarters (Chenopodium album), wild poinsettia (Euphorbia heterophylla), palmer pigweed (Amaranthus palmeri), waterhemp (common waterhemp, Amaranthus rudis), surinam grass (Brachiaria decumbens), large (Lg) crabgrass (Digitaria sanguinalis), Brazilian crabgrass (Digitaria horizontalis), fall panicum (Panicum dichotomiflorum), giant foxtail (Setaria faberii), green foxtail (Setaria viridis), goosegrass (Eleusine indica), johnsongrass (Sorghum halepense), ragweed (common ragweed, Ambrosia elatior), barnyardgrass (Echinochloa crus-galli), sandbur (southern sandbur, Cenchrus echinatus), arrowleaf sida (Sida rhombifolia), Italian ryegrass (Lolium multiflorum), dayflower (Virginia (VA) dayflower, Commelina virginica), field bindweed (Convolvulus arvensis), morningglory (Ipomoea coccinea), nightshade (eastern black nightshade, Solanum ptycanthum), kochia (Kochia scoparia), yellow nutsedge (Cyperus esculentus), cocklebur (common cocklebur, Xanthium strumarium), smartweed (ladysthumb smartweed, and hairy beggarticks (Bidens pilosa), were planted into a silt loam soil and treated preemergence with test chemicals formulated in a non-phytotoxic solvent mixture which included a surfactant.
(§2) At the same time, plants from these crop and weed species and also horseweed (Canada horseweed, Conyza canadensis), waterhemp_RES1, (ALS & Triazine resistant common waterhemp, Amaranthus rudis), and waterhemp_RES2, (ALS & HPPD resistant common waterhemp, Amaranthus rudis) were planted in pots containing Redi-Earth® planting medium (Scotts Company, 14111 Scottslawn Road, Marysville, Ohio 43041) comprising spaghnum peat moss, vermiculite, wetting agent and starter nutrients were treated with postemergence applications of test chemicals formulated in the same manner. Plants ranged in height from 2 to 18 cm for postemergence treatments (1- to 4-leaf stage). Treated plants and controls were maintained in a greenhouse for 14 to 21 days, after which time all species were compared to controls and visually evaluated. Plant response ratings, summarized in Table E, are based on a scale of 0 to 100 where 0 is no effect and 100 is complete control. A dash (-) response means no test result.

sunflower = assay: Test C preemergence; type: in vivo, Helianthus annuus; details: for Sunflower plant response rating: preemergence, scale 0 (no effect) to 100 (complete control); for Plant response rating, Sunflower: Preemergence, 31 g ai/ha, scale 0 to 100, 0 no effect, 100 complete control
Source text: (§3) Seeds of plant species selected from blackgrass (Alopecurus myosuroides), Italian ryegrass (Lolium multiflorum), wheat, winter (winter wheat, Triticum aestivum), galium (catchweed bedstraw, Galium aparine), corn (Zea mays), large (Lg) crabgrass (Digitaria sanguinalis), giant foxtail (Setaria faberii), johnsongrass (Sorghum halepense), lambsquarters (Chenopodium album), morningglory (Ipomoea coccinea), yellow nutsedge (Cyperus esculentus), pigweed (Amaranthus retroflexus), ragweed (common ragweed, Ambrosia elatior), soybean (Glycine max), barnyardgrass (Echinochloa crus-galli), oilseed rape (Brassica napus), waterhemp (common waterhemp, Amaranthus rudis), kochia (Kochia scoparia), wild oat (Avena fatua), surinam grass (Brachiaria decumbens), foxtail, green (green foxtail, Setaria viridis), goosegrass (Eleusine indica), bromegrass, downy (downy bromegrass, Bromus tectorum), nightshade (eastern black nightshade, Solanum ptycanthum), cocklebur (common cocklebur, Xanthium strumarium), cupgrass, woolly (woolly cupgrass, Eriochloa villosa), bermudagrass (Cynodon dactylon), sunflower, (common oilseed sunflower, Helianthus annuus), Russian thistle (Salsola kali), and velvetleaf (Abutilon theophrasti) were planted into a blend of loam soil and sand and treated preemergence with test chemicals formulated in a non-phytotoxic solvent mixture which included a surfactant.
(§4) At the same time, plants selected from these crop and weed species and also barley, winter (winter barley, Hordeum vulgare), windgrass (Apera spica-venti), chickweed (common chickweed, Stellaria media), deadnettle (henbit deadnettle, Lamium amplexicaule), and canarygrass (littleseed canarygrass, Phalaris minor) were planted in pots containing Redi-Earth® planting medium (Scotts Company, 14111 Scottslawn Road, Marysville, Ohio 43041) comprising spaghnum peat moss, vermiculite, wetting agent and starter nutrients and treated with postemergence applications of test chemicals formulated in the same manner. Plants ranged in height from 2 to 18 cm (1- to 4-leaf stage) for postemergence treatments. Treated plants and controls were maintained in a greenhouse for 13 to 15 days, after which time all species were compared to controls and visually evaluated. Plant response ratings, summarized in Table C, are based on a scale of 0 to 100 where 0 is no effect and 100 is complete control. A dash (-) response means no test result.

bromegrass, downy = assay: Test C postemergence; type: in vivo, Bromus tectorum; details: for Plant response rating (0 to 100), Bromegrass, Downy: postemergence; for Plant response rating, Bromegrass, Downy: Postemergence, scale 0 to 100 (0 no effect, 100 complete control)
Source text: as §3, §4

bermudagrass = assay: Test C postemergence; type: in vivo, Cynodon dactylon; details: for Plant response rating (0 to 100), Bermudagrass: postemergence; for Plant response rating, Bermudagrass: Postemergence, scale 0 to 100 (0 no effect, 100 complete control)
Source text: as §3, §4

foxtail, green = assay: Test C preemergence; type: in vivo, Setaria viridis; details: for Foxtail, Green plant response rating: preemergence, scale 0 (no effect) to 100 (complete control); for Plant response rating, Foxtail, Green: Preemergence, 31 g ai/ha, scale 0 to 100, 0 no effect, 100 complete control
Source text: as §3, §4

palmer pigweed = assay: Test E postemergence; type: in vivo, Amaranthus palmeri; details: for pest or weed control at 250 g/ha: 250 g ai/ha
Source text: as §1, §2

[1] = Postemergence, 31 g ai/ha, scale 0 to 100
[2] = Postemergence, 62 g ai/ha, scale 0 to 100
[3] = Postemergence, 125 g ai/ha, scale 0 to 100
[4] = postemergence, 8 g ai/ha, scale 0 to 100, 0 no effect, 100 complete control
[5] = postemergence, 16 g ai/ha, scale 0 to 100, 0 no effect, 100 complete control
[6] = post-emergence, Postemergence, 31 g ai/ha, scale 0 to 100, read-out: Plant response rating, Pigweed, Palmer
[7] = post-emergence, Postemergence, 62 g ai/ha, scale 0 to 100, read-out: Plant response rating, Pigweed, Palmer
[8] = post-emergence, Postemergence, 125 g ai/ha, scale 0 to 100, read-out: Plant response rating, Pigweed, Palmer
[9] = post-emergence, postemergence, 16 g ai/ha, scale 0 to 100, 0 no effect, 100 complete control, read-out: Plant response rating, Pigweed, Palmer
[10] = post-emergence, Postemergence, scale 0 to 100, read-out: Plant response rating, Pigweed, Palmer
[11] = Postemergence, 250 g ai/ha, scale 0 to 100

| Structure (SMILES) | Plant response rating, Smartweed (smartweed; [2]) | Plant response rating, Smartweed (smartweed; [3]) | Plant response rating, Smartweed (smartweed; [5]) | Sunflower plant response rating (sunflower; 62 g ai/ha) | Sunflower plant response rating (sunflower; 125 g ai/ha) | Sunflower plant response rating (sunflower; 250 g ai/ha) | Plant response rating, Sunflower (sunflower) | Plant response rating (0 to 100), Bromegrass, Downy (bromegrass, downy; 125 g ai/ha) | Plant response rating (0 to 100), Bromegrass, Downy (bromegrass, downy; 250 g ai/ha) | Plant response rating, Bromegrass, Downy (bromegrass, downy; 31 g ai/ha, 13 to 15 days) | Plant response rating, Bromegrass, Downy (bromegrass, downy; 62 g ai/ha) | Plant response rating (0 to 100), Bermudagrass (bermudagrass; 125 g ai/ha) | Plant response rating (0 to 100), Bermudagrass (bermudagrass; 250 g ai/ha) | Plant response rating, Bermudagrass (bermudagrass; 31 g ai/ha, 13 to 15 days) | Plant response rating, Bermudagrass (bermudagrass; 62 g ai/ha) | Foxtail, Green plant response rating (foxtail, green; 62 g ai/ha) | pest or weed control at 31 g/ha (palmer pigweed; [6]) | pest or weed control at 62 g/ha (palmer pigweed; [7]) | pest or weed control at 125 g/ha (palmer pigweed; [8]) | pest or weed control at 16 g/ha (palmer pigweed; [9]) | other results |
| --- | --- | --- | --- | --- | --- | --- | --- | --- | --- | --- | --- | --- | --- | --- | --- | --- | --- | --- | --- | --- | --- |
| Clc1cnc(Oc2ccccc2-n2cc(Br)cn2)nc1 [Compound 7, 2-[2-(4-bromo-1H-pyrazol-1-yl)phenoxy]-5-chloropyrimidine] | 70 | 100 | 30 | 10 | 10 | 10 | 0 | 10 | 10 | 5 | 5 | 15 | 70 | 0 | 5 | 90 | 50% | 75% | 85% | 60% | Plant response rating, Smartweed (smartweed; [1]): 40; Plant response rating, Smartweed (smartweed; [4]): 15; Foxtail, Green plant response rating (foxtail, green; 125 g ai/ha): 90; Foxtail, Green plant response rating (foxtail, green; 250 g ai/ha): 95; Plant response rating, Foxtail, Green (foxtail, green): 50; pest or weed control at 8 g/ha (palmer pigweed; post-emergence, postemergence, 8 g ai/ha, scale 0 to 100, 0 no effect, 100 complete control, read-out: Plant response rating, Pigweed, Palmer): 40% |
| Fc1cnc(Oc2ccccc2-n2cc(Br)cn2)nc1 [Compound 10, 2-[2-(4-bromo-1H-pyrazol-1-yl)phenoxy]-5-fluoropyrimidine] |  |  |  |  |  |  |  | 10 | 15 | 5 | 5 | 5 | 50 | 0 | 5 |  | 70% | 75% | 85% | 60% | pest or weed control at 250 g/ha (palmer pigweed; [10]): 95% |
| FC(F)(F)c1cnn(-c2ccccc2Oc2ncc(Cl)cn2)c1 [Compound 16] |  |  |  | 0 | 0 | 0 | 0 | 5 | 5 | 0 | 5 | 50 | 55 | 10 | 15 | 90 |  |  |  |  | Foxtail, Green plant response rating (foxtail, green; 125 g ai/ha): 90; Foxtail, Green plant response rating (foxtail, green; 250 g ai/ha): 90; Plant response rating, Foxtail, Green (foxtail, green): 90 |
| FC(F)(F)c1cnn(-c2ccccc2Oc2ncc(Br)cn2)c1 [Compound 18, 5-bromo-2-[2-[4-(trifluoromethyl)-1H-pyrazol-1-yl]phenoxy]pyrimidine] |  |  |  | 0 | 0 | 40 | 0 |  |  |  |  |  |  |  |  | 90 |  |  |  |  | Foxtail, Green plant response rating (foxtail, green; 125 g ai/ha): 90; Foxtail, Green plant response rating (foxtail, green; 250 g ai/ha): 90; Plant response rating, Foxtail, Green (foxtail, green): 85 |
| N#Cc1cccc(Oc2ncc(Cl)cn2)c1-n1cc(C(F)(F)F)cn1 [Compound 58, 3-[(5-chloro-2-pyrimidinyl)oxy]-2-[4-(trifluoromethyl)-1H-pyrazol-1-yl]benzonitrile] | 85 | 100 | 50 |  |  |  |  |  |  |  |  |  |  |  |  |  | 95% | 100% | 100% | 90% | Plant response rating, Smartweed (smartweed; [1]): 65; Plant response rating, Smartweed (smartweed; [11]): 100; pest or weed control at 250 g/ha (palmer pigweed; [10]): 100% |
| N#Cc1cccc(Oc2ncc(Br)cn2)c1-n1cc(C(F)(F)F)cn1 [Compound 59, 3-[(5-bromo-2-pyrimidinyl)oxy]-2-[4-(trifluoromethyl)-1H-pyrazol-1-yl]benzonitrile] | 80 | 100 | 55 |  |  |  |  |  |  |  |  |  |  |  |  |  | 80% | 85% | 100% | 75% | Plant response rating, Smartweed (smartweed; [11]): 100; pest or weed control at 250 g/ha (palmer pigweed; [10]): 100% |
| Clc1cnc(Oc2cccc(Br)c2-n2cc(Br)cn2)nc1 [Compound 65] |  |  |  |  |  |  |  |  |  |  |  |  |  |  |  |  |  |  |  |  | Plant response rating, Pigweed, Palmer (palmer pigweed; [1]): 50; Plant response rating, Pigweed, Palmer (palmer pigweed; [2]): 50; Plant response rating, Pigweed, Palmer (palmer pigweed; [3]): 60; Plant response rating, Pigweed, Palmer (palmer pigweed; [4]): 10; Plant response rating, Pigweed, Palmer (palmer pigweed; [5]): 20 |
